Test results: US20080299270A1, “Fat Taste Receptors and Their Methods of Use” (NESTEC S.A., priority 2005, published 2008)

Test system: GPR40
Experiment: two-bottle preference test of fat emulsions, GPR40 knockout vs normal mice
Type: in vivo, mouse
Conditions: GPR40 knockout mice compared to control mice; fat emulsion vs vehicle only, two drinking bottles
From the text: A preference ratio of 0.5 indicates indifference, above 0.5 indicates preference and below 0.5 indicates avoidance. Both preference and intake of fat are diminished in the GPR40 KO mice compared to control mice. The stars show the concentrations of lipids at which the differences of intake or preference between knockout and control mice are statistically significant. […] The fat emulsions contained corn oil, Intralipid, lauric acid or oleic acid. When compared with normal mice, the knockout animals drank less fat. […] Because mice can still detect fat in the absence of GPR40, another receptor, probably GPR120, must also play a role in fat taste signaling.

SMILES | intake of fat emulsion | preference for fat emulsion
CCCCCCCC/C=C\CCCCCCCC(=O)O [oleic acid] | diminished | diminished
CCCCCCCCCCCC(=O)O [lauric acid] | diminished | diminished
